In US20230137849A1, “USE OF A COMPOUND OF THE DIURETICS CLASS FOR TREATING CANCER” (AZELEAD, priority 2017, published 2023):
Like-named read-outs stand apart in the source and are kept apart here.

Experiments:
MDA-MB-231 cells = assay: Cytotoxicity potentiation test: MTT cell viability of MDA-MB-231 cells, doxorubicin +/- althiazide; type: cell-based, human
Experimental: The cell cultures are carried out on human breast cancer epithelial cell lines MDA-MB-231 (HTB-26™), resulting from metastases present in a pleural effusion of a patient with a mammary adenocarcinoma. This line is used as a triple negative cancer cell model (no expression of ER-type nuclear estrogen receptors, nuclear progesterone receptors or overexpression of the oncogene encoding HER2 protein (Human Epidermal Growth factor Receptor-2).
The cell viability is determined via the IC50 index, measured by the MTT technique (2-(4,5-dimethyl-2-thiazolyl)-3,5-diphenyl-2H-tetrazolium bromide) (Mosmann, 1983). This colorimetric test is based on the reduction of yellow tetrazolium salts into insoluble purple formazan crystals in aqueous solution. The spectrophotometric measurement of the absorbance at 570 nm is directly proportional to the number of viable cells
The cells were seeded in 96-well plates at a density of 25,000 cells per well. After 24 h of culture at 37° C., 5% CO2 and 1% O2, the medium was renewed and supplemented with increasing doses of doxorubicin+/−althiazide. Cells were incubated for 24 h at 37° C., 5% CO2 and 1% O2. The MDA-MB-231 cells were washed and then incubated for 1 hour at 37° C. with 100 μl of a 0.5 mg/ml MTT solution prepared in culture medium. The formazan crystals were dissolved in […] and the absorbance measured at 570 nm using the Tecan Sunrise spectrophotometer. The IC50 was determined using the Graphpad Prism 5.0 software. The treatments were carried out in triplicate and the manipulation was carried out 5 times.
The tests are carried out in cell culture in 96-well plates, on the cell line MDA-MB-231. The MDA-MB-231 cells are seeded in 96-well plates at a density of 10,000 cells and incubated 24 h at 37° C., 5% CO2 and 1% O2. The medium is then renewed and added with increasing concentrations of doxorubicin+/−100 μM althiazide. The cells are incubated for an additional 24 hours at 37° C., 5% CO2 and 1% O2. Treatments were made in triplicas and the experiment was repeated 5 times.
A cell viability test is then performed according to the method described in Materials and methods.
Results are normalized to the control condition (FIG. 12)

[1] = test system: hematopoietic stem cells CD41:GFP accumulated in the CHT; type: in vivo; details: for reduction of the number of HSCs accumulated in CHT: 10 μM (FIG. 3; b188 prints 10 μl), 24 h, vs reference embryos treated with DMSO; for efficiency on number of cells migrated to CHT: 24 hours, FIG. 6
From the text: A method for determining whether a molecule is capable of treating cancer in the pre-metastatic state has been described in international application WO 2011/007259. This method consists in isolating molecules capable of inhibiting the emergence of hematopoietic stem cells from the floor of the aorta without cell division, but by endothelial-to-hematopoietic transition. This emergence involves the loss of cell polarity of emerging cells, the loss of cellular junctions with these neighboring cells and the acquisition of migratory properties. This model is used because it mimics each stage of the epithelial-mesenchymal transition, the first stage of cancer metastasis. The endothelial-to-hematopoietic transition takes place in a region of the embryo called Aorta-Gonad-Mesonephros (AGM).
(§1) The colonization of hematopoietic tissues by hematopoietic stem cells mimics the appearance and/or progression of a metastatic cancerous tumor since it involves intravasation, extravasation, or the migration of HSCs following a gradient of SDF-1. The first colonized tissue is caudal hematopoietic tissue (CHT).
In order to evaluate the inhibition of the endothelial-to-hematopoietic transition, transgenic CD41:GFP (green fluorescent protein) embryos are used. HSCs express GFP under the control of the CD41 promoter, which allows them to be monitored in vivo under a fluorescence microscope. The read-out is the number of hematopoietic stem cells CD41:GFP accumulated in the AGM (mimicking the initiation of the metastatic process) and/or in the CHT of the zebrafish embryo (mimicking the progression of the metastatic process). The accumulation of CD41:GFP cells in CHT implies that each cell has made an endothelial-to-hematopoietic transition, intravasation, extravasation at the CHT level, has settled in a stromal niche and has proliferated.
The Tg transgenic zebrafish line (CD41:GFP) is maintained in accordance with the protocols described by the Ethical Committee for Animal Experimentation. The fish are kept at a temperature of 28° C. and their development stage is determined as before. The molecules are tested on zebrafish embryos at the 25 hpf stage. The embryos are decorticated and transferred to a 96-well plate (1 embryo/well) containing the test compounds in a final volume of 100 μl of the embryonic growth medium (60 μg salt for 1 ml H2O). […] The treated embryos are incubated for 24 hours in an incubator at 28° C.
The embryos are imaged with a plate reader after being anesthetized with 0.16% tricaine (ethyl-3-aminobenzoate). A quantification of the number of fluorescent cells (CD41:GFP) accumulated in the CHT is carried out.
Althiazide was tested on the zebrafish embryo according to the method previously described in the international application WO 2011/007259. This method consists in isolating molecules capable of inhibiting the emergence of hematopoietic stem cells from the floor of the aorta without cell division, but by endothelial-to-hematopoietic transition. This emergence involves the loss of cell polarity of emerging cells, the loss of cellular junctions with these neighboring cells and the acquisition of migratory properties. This model is used, in the context of the invention, because it mimics each of the stages of the epithelial-to-mesenchymal transition, the first stage of the cancerous metastasis. The endothelial-to-hematopoietic transition takes place in a region of the embryo called Aorto-Gonado-Mesonephros (AGM).
as §1, with “metastatic” for “metastatic cancerous”, “SDF1.” for “SDF-1.”, “(CHT). This physiological process is considered, in the context of the invention, as representative of the appearance and/or progression of a metastatic tumor. […]” for “(CHT).”

C=CCSCC1Nc2cc(Cl)c(S(N)(=O)=O)cc2S(=O)(=O)N1 (racemic) [althiazide]
reduction of the IC50 of doxorubicin (MDA-MB-231 cells; 100 μM althiazide added to doxorubicin, 24 h, 1% O2): 45%
increase of the effects of doxorubicin (MDA-MB-231 cells; 100 μM althiazide, doxorubicin between 25 and 2.5 μM, FIG. 12): about 15%
reduction of the number of HSCs accumulated in CHT [1]: 41%
reduction of the number of HSCs accumulated in CHT ([1]; listed as Althiazide): most effective chemical compound
anti-migratory effect (HSCs accumulated in CHT) compared with dasatinib ([1]; 10 μM both, control DMSO 1%, FIG. 5): as effective as dasatinib
decrease in the number of cells that colonized/migrated in CHT, second test ([1]; 10 μM, larger number of embryos (n=64 and n=74), FIG. 4): 36.2%
efficiency on number of cells migrated to CHT ([1]; althiazide 1 μM): no effect
efficiency on number of cells migrated to CHT ([1]; althiazide 10 μM): 50%
efficiency on number of cells migrated to CHT ([1]; althiazide 100 μM): 100%
invasion of CHT by CD41:GFP cells / number of cells having colonized CHT, in words ([1]; thiazide compounds test, 10 μM or 25 μM, FIG. 9): most effective chemical compound
reduction of migration (cells having colonized CHT) ([1]; thiazide compounds test, FIG. 9, concentration not stated (tested at 10 and 25 μM)): 30%
toxic effects in the dose effect test ([1]; zebrafish, in vivo): appearance of toxic effects
